Read-outs that look alike come from different tables or passages of the source.

For test [1], the system named is STMN2 (TDP-mut (N352S) STMN2-NLuc SH-SY5Y cells). Put plainly: STMN2 nanoluciferase assay in TDP-43 mutant SH-SY5Y cells (Table A: mut TDP-43; Table B: mut HD Luciferase). Particulars: mutant TDP-43 cell line; for EC50: Homo sapiens, SH-SY5Y. It counts as cell-based, human.
The test system of test [2] is STMN2 (WT STMN2-NLuc SH-SY5Y cells). Description: STMN2 nanoluciferase assay in WT SH-SY5Y cells (Table A: WT TDP-32; Table B: WT HD Luciferase). It counts as cell-based, human. Particulars: Homo sapiens, SH-SY5Y, WT cell line; for maximal fold induction: Emax.
Setting [3] is: Table A, read-out: EC50, mut TDP-43.
Where [4] appears, read: Table B, read-out: EC50, mut HD Luciferase.
Where [5] appears, read: Table A, read-out: EC50, WT TDP-32.
Setting [6] is: Table B, read-out: EC50, WT HD Luciferase.

As to `Cc1nc2c(-c3ccc(F)cc3)c(/C=C/[C@@H](O)C[C@@H](O)CC(=O)O)c(C3CC3)cc2s1` [Example I-7, (3R,5S,E)-7-(6-cyclopropyl-4-(4-fluorophenyl)-2-methylbenzo[d]thiazol-5-yl)-3,5-dihydroxyhept-6-enoic acid], the EC50 in test [1] (setting [3]) was 1000 to 5000 nM; in test [1] (setting [4]), 100 to 500 nM; in test [2] (setting [5]), 1000 to 5000 nM; in test [2] (setting [6]), 100 to 500 nM. Also, the “HD Luciferase (mut, Emax)” value in test [1] (Table B) was “** (means≥1.25 and <1.5)”. The compound further came in with a maximal fold induction in test [2] (Table B) of 1 to 1.25.
For the compound `COCc1c(C2CC2)nc(C2CC2)c(/C=C/[C@@H](O)C[C@@H](O)CC(=O)O)c1-c1ccc(F)cc1C` [II-10, (3R,5S,E)-7-(2,6-dicyclopropyl-4-(4-fluoro-2-methylphenyl)-5-(methoxymethyl)pyridin-3-yl)-3,5-dihydroxyhept-6-enoic acid], the half-maximal effective concentration (EC50) in test [1] (setting [4]) and in test [2] (setting [6]) was at most 10 nM each time.
As for `COCc1c(C23CC(C2)C3)nc(C2CC2)c(/C=C/[C@@H](O)C[C@@H](O)CC(=O)O)c1-c1ccc(F)cc1` [II-2, (3R,5S,E)-7-(6-(bicyclo[1.1.1]pentan-1-yl)-2-cyclopropyl-4-(4-fluorophenyl)-5-(methoxymethyl)pyridin-3-yl)-3,5-dihydroxyhept-6-enoic acid], the EC50 was at most 100 nM in test [1] (setting [3]), at most 10 nM in test [1] (setting [4]), 100 to 500 nM in test [2] (setting [5]) and at most 10 nM in test [2] (setting [6]).
Consider `CC[C@H](C)C(=O)O[C@H]1C[C@H](O)C=C2C=C[C@H](C)[C@H](CC[C@@H](O)C[C@@H](O)CC(=O)O)[C@H]21` [Pravastatin], for which the half-maximal effective concentration (EC50) in test [1] (setting [3]) and in test [2] (setting [5]) was at least 10000 nM throughout.
`COCc1c(C2CC2)nc(C2CC2)c(/C=C/[C@@H](O)C[C@@H](O)CC(=O)O)c1-c1ccc(F)cc1Cl` [II-9, (3R,5S,E)-7-(4-(2-chloro-4-fluorophenyl)-2,6-dicyclopropyl-5-(methoxymethyl)pyridin-3-yl)-3,5-dihydroxyhept-6-enoic acid]: the EC50 in test [1] (setting [3]) is at most 100 nM; in test [1] (setting [4]) it was at most 10 nM; in test [2] (setting [5]), at most 100 nM; in test [2] (setting [6]), at most 10 nM. This compound also had a maximal fold induction in test [2] (Table B) of 1.5 to 1.75.
As for `O=C(O)C[C@H](O)C[C@H](O)/C=C/c1c(C2CC2)nc2scnc2c1-c1ccc(F)cc1` [Example I-2, (3R,5S,E)-7-(5-cyclopropyl-7-(4-fluorophenyl)thiazolo[5,4-b]pyridin-6-yl)-3,5-dihydroxyhept-6-enoic acid], the EC50 in test [1] (setting [4]) and in test [2] (setting [6]) was at least 500 nM each time. The “HD Luciferase (mut, Emax)” value in test [1] (Table B) is “* (means≥1 and <1.25)”. The maximal fold induction in test [2] (Table B) was in the range of 1 to 1.25.
In the case of `O=C(O)C[C@H](O)C[C@H](O)/C=C/c1c(C2CC2)cc2ncsc2c1-c1ccc(F)cc1` [Example I-11, (3R,5S,E)-7-(5-cyclopropyl-7-(4-fluorophenyl)benzo[d]thiazol-6-yl)-3,5-dihydroxyhept-6-enoic acid], the EC50 in test [1] (setting [4]) and in test [2] (setting [6]) was 10 to 50 nM each time. The “HD Luciferase (mut, Emax)” value in test [1] (Table B) is “** (means≥1.25 and <1.5)”.
Regarding `COCc1c(C2CC2)nc(C2CC2)c(/C=C/[C@@H](O)C[C@@H](O)CC(=O)O)c1-c1c(F)cc(F)cc1Cl` [II-21, (3R,5S,E)-7-(4-(2-chloro-4,6-difluorophenyl)-2,6-dicyclopropyl-5-(methoxymethyl)pyridin-3-yl)-3,5-dihydroxyhept-6-enoic acid], the EC50 in test [1] (setting [4]) and in test [2] (setting [6]) was at most 10 nM throughout. Also, the maximal fold induction in test [2] (Table B) fell in the range of 1.5 to 1.75.
Regarding `COCc1c(C2CC2)nc(C2CC2)c(/C=C/[C@@H](O)C[C@@H](O)CC(=O)O)c1-c1c(C)cc(F)cc1F` [II-17, (3R,5S,E)-7-(2,6-dicyclopropyl-4-(2,4-difluoro-6-methylphenyl)-5-(methoxymethyl)pyridin-3-yl)-3,5-dihydroxyhept-6-enoic acid], the EC50 in test [1] (setting [4]) and in test [2] (setting [6]) was at most 10 nM each time. This compound gave a maximal fold induction in test [2] (Table B) of 1.5 to 1.75.
For `Cc1csc2c(-c3ccc(F)cc3)c(/C=C/[C@@H](O)C[C@@H](O)CC(=O)N(C)C)c(C3CC3)nc12` [Example I-26, (3R,5S,E)-7-(5-cyclopropyl-7-(4-fluorophenyl)-3-methylthieno[3,2-b]pyridin-6-yl)-3,5-dihydroxy-N,N-dimethylhept-6-enamide], the EC50 in test [1] (setting [4]) and in test [2] (setting [6]) was at least 500 nM in each case. Moreover, the “HD Luciferase (mut, Emax)” value in test [1] (Table B) is “* (means≥1 and <1.25)”. Besides, the maximal fold induction in test [2] (Table B) was 1 to 1.25.
Take `COCc1c(C23CC(C2)C3)nc(C2CC2)c(/C=C/[C@@H](O)C[C@@H](O)CC(=O)O)c1-c1ccc(F)cc1Cl` [II-1, (3R,5S,E)-7-(6-(bicyclo[1.1.1]pentan-1-yl)-4-(2-chloro-4-fluorophenyl)-2-cyclopropyl-5-(methoxymethyl)pyridin-3-yl)-3,5-dihydroxyhept-6-enoic acid]: the EC50 in test [1] (setting [3]) was 100 to 500 nM; in test [1] (setting [4]) it was 10 to 50 nM; in test [2] (setting [5]), 100 to 500 nM; in test [2] (setting [6]) it was 10 to 50 nM. The “HD Luciferase (mut, Emax)” value in test [1] (Table B) is “**** (means≥1.5 and <1.75)”.

What is called EC50 is the concentration that produces a half-maximal response. As a reminder, the maximal fold induction is the ratio of treated to control signal.

The values are drawn from US20260356846A1, “STATIN DERIVATIVES AND METHODS OF USING THE SAME” (The General Hospital Corporation, priority 2023, published 2026).
